From patent US20060018981A1, “Sanitization process by using bacteriostatic or bactericidal products derived from vegetables” (priority 2004, published 2006) come the findings set out here.

The data set is classed as physicochemical. Here is the method: Substances B and C Evaporation Rate at Room Temperature Substances B and C were inserted in a thermostated chamber at room temperature and the substance weight/surface ratio for both of them was evaluated. Both substances B and C, alone or in mixture with a gel, were controlled and the loss of weight versus time was recorded. The resulting data of the test were interpolated so as to obtain two algorithms indicating, respectively, the evaporation rate of B and C. To this end two different interpolation methods were used. The algorithm adopted for the first interpolation method is: po/[…] uti (1) The algorithm adopted for the second interpolation method is: po/p=(A×T1⁄2)/(T1⁄2+min uti) (2) Parameters used in algorithms (1) and (2) have the following meaning: p: initial weight of the antibacterial substances expressed in g; po: weight of the antibacterial substances at time t, expressed in g; a, b, A: correlation parameters; and T1⁄2: half-life time of the antibacterial substances.

With lavender oil [C: lavender oil], the “parameter T1/2 (half-life time of the antibacterial substances)” value is on record as 46856.

With “silvester pine oil [B: silvester pine oil]”, the “parameter T1/2 (half-life time of the antibacterial substances)” value was 854737.
